# Measurements published in ChEMBL document CHEMBL1130320, “Hypoxia-selective antitumor agents. 15. Modification of rate of nitroreduction and extent of lysosomal uptake by polysubstitution of 4-(alkylamino)-5-nitroquinoline bioreductive drugs” (J Med Chem, 1997).
# Tested on: not listed separately
# Experiment: physchem
# Conditions: aqueous solution
# Description: Affinity constant determined in aqueous solution
row,pKa,Compound
1,6.78,O=[N+]([O-])c1cccc2nccc(NCCN3CCOCC3)c12
2,7.1,COc1ccc([N+](=O)[O-])c2c(NCC(O)CO)ccnc12 (configuration not stated)
3,7.06,O=[N+]([O-])c1cccc2nccc(NCCCO)c12
4,7.18,CCCCNc1ccnc2cccc([N+](=O)[O-])c12
5,7.2,Cc1ccc([N+](=O)[O-])c2c(NCC(O)CO)ccnc12 (configuration not stated)
6,6.64,Cc1nc2cccc([N+](=O)[O-])c2c(NCCCN(C)C)c1C
7,6.2,CCc1ccc2nccc(NCCCN(C)C)c2c1[N+](=O)[O-]
8,6.81,O=[N+]([O-])c1cccc2nccc(NCC(O)CO)c12 (configuration not stated)

# The remaining lines, values behind:
row,Compound,pKa
1,Cc1cc(C)c2nccc(NCCCN(C)C)c2c1[N+](=O)[O-],6.37
2,Cc1ccc([N+](=O)[O-])c2c(NCCCN(C)C)cc(-c3ccccc3)nc12,5.43
3,COc1ccc([N+](=O)[O-])c2c(NCCCN(C)C)c(C)c(C)nc12,6.64
4,COc1cc(OC)c2nccc(NCCCN(C)C)c2c1[N+](=O)[O-],6.25
5,Cc1cnc2c(C)ccc([N+](=O)[O-])c2c1NCCCN(C)C,6.1
6,Cc1nc2c(C)ccc([N+](=O)[O-])c2c(NCCCN(C)C)c1C,6.67

# Tested on: not listed separately
# Experiment: physchem
# Conditions: aqueous solution
# Remark: another data set of the same source
# Description: Pka was determined in aqueous solution
row,pKa,Compound
1,6.07,Cc1cnc2ccc(C)c([N+](=O)[O-])c2c1NCCCN(C)C
2,5.08,CN(C)CCNC(=O)c1ccc(NNc2ccnc3cccc([N+](=O)[O-])c23)cc1

# Tested on: CHO-AA8
# Experiment: cells
# Conditions: Cricetulus griseus, CHO-AA8, 18 h
# Description: Growth inhibition of aerobic AA8 cells, after 18 hours exposure
row,Compound,IC50 [µM]
1,O=[N+]([O-])c1cccc2nccc(NCCN3CCOCC3)c12,18
2,Cc1cc(C)c2nccc(NCCCN(C)C)c2c1[N+](=O)[O-],74
3,COc1ccc([N+](=O)[O-])c2c(NCC(O)CO)ccnc12 (configuration not stated),50
4,Cc1ccc([N+](=O)[O-])c2c(NCCCN(C)C)cc(-c3ccccc3)nc12,12
5,Cc1cnc2ccc(C)c([N+](=O)[O-])c2c1NCCCN(C)C,201
6,COc1ccc([N+](=O)[O-])c2c(NCCCN(C)C)c(C)c(C)nc12,166
7,O=[N+]([O-])c1cccc2nccc(NCCCO)c12,26
8,CCCCNc1ccnc2cccc([N+](=O)[O-])c12,9.6
9,Cc1ccc([N+](=O)[O-])c2c(NCC(O)CO)ccnc12 (configuration not stated),110
10,Cc1nc2cccc([N+](=O)[O-])c2c(NCCCN(C)C)c1C,47
11,COc1cc(OC)c2nccc(NCCCN(C)C)c2c1[N+](=O)[O-],186
12,Cc1cnc2c(C)ccc([N+](=O)[O-])c2c1NCCCN(C)C,277
13,CCc1ccc2nccc(NCCCN(C)C)c2c1[N+](=O)[O-],108
14,Cc1nc2c(C)ccc([N+](=O)[O-])c2c(NCCCN(C)C)c1C,113
15,CN(C)CCNC(=O)c1ccc(NNc2ccnc3cccc([N+](=O)[O-])c23)cc1,13
16,O=[N+]([O-])c1cccc2nccc(NCC(O)CO)c12 (configuration not stated),33
